Assays:
[1] = tested on: HCT116-WT cells; assay: Inhibitory activity against cell proliferation (CellTiter Glo, 6 days), HCT116-WT; type: cell-based; details: 144 h, HCT116-WT cells, 6 days, CellTiter Glo; read-out: HCT116-WT IC50
Outline: (§1)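 250 cells/well, McCoy's 5A + 10% FBS, o/n 37°C 5% CO2; cpd 8-pt 4-fold from 10000 nM, 6 d; CTG lum on day 7; IC50 vs DMSO.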

[2] = target: PRMT5-MTA (Homo sapiens, UniProt O14744); assay: Enzymatic inhibitory activity against PRMT5-MTA (AlphaScreen); type: biochemical; details: read-out: IC50
Outline: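 PRMT5/[…] (1 nM) was preincubated for 30 min at room temperature with 1 µM […] and 2.5 µM SAM, then exposed to compound (10-point, 3-fold from 1000 nM) for 15 min at 23 °C. Histone H4 substrate (5 nM) was added and reacted for 45 min at 23 °C. Symmetric dimethyl-R3 H4 was detected by AlphaScreen and IC50 calculated.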

[3] = tested on: HCT116 MTAP KO cells; assay: Inhibitory activity against cell proliferation (CellTiter Glo, 6 days), HCT116 MTAP KO; type: cell-based; details: for IC50: Homo sapiens, HCT-116, 144 h, HCT116 MTAP KO cells, 6 days, CellTiter Glo, read-out: HCT116 MTAP KO IC50; for Selectivity HCT 116-WT/ HCT116 MTAP KO: ratio of IC50 HCT116-WT / HCT116 MTAP KO
Outline: as §1

PRMT5-MTA, sequence (O14744 whole entry): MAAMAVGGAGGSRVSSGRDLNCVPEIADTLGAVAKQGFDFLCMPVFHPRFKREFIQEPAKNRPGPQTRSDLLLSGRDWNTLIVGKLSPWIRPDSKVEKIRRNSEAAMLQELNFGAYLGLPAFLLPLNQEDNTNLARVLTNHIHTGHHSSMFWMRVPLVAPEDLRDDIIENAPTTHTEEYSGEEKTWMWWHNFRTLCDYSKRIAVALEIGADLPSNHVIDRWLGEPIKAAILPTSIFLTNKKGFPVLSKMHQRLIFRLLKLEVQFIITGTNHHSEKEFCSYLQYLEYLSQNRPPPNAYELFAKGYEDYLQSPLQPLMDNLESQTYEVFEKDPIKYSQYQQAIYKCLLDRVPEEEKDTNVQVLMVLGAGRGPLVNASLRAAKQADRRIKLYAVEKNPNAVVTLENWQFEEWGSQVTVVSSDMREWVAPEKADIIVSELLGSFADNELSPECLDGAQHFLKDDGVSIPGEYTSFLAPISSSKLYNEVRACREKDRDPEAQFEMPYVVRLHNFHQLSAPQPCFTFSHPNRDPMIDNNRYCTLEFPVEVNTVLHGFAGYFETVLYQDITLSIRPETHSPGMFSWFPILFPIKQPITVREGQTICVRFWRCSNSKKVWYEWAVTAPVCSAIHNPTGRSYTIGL
PRMT5-MTA, sequence (Q9BQA1 whole entry partner): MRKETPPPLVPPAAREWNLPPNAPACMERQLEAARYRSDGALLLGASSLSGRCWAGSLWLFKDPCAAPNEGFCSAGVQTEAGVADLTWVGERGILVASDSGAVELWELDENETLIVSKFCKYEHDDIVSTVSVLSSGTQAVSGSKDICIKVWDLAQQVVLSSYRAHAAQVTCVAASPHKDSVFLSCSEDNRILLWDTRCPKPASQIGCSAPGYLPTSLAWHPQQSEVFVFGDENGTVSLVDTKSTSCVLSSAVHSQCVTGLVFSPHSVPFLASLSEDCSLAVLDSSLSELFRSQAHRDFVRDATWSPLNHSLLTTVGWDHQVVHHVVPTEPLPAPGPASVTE

Structure (SMILES)	IC50 [1] [µM]	IC50 [2] [µM]	IC50 [3] [µM]	Selectivity HCT 116-WT/ HCT116 MTAP KO [3]
Cc1cc2cc(C(=O)N(Cc3ccc(-c4cnn(C)c4)cn3)N(c3ncccn3)C3CC3)ccc2nc1N [Example 152, 2-amino-N'-cyclopropyl-3-methyl-N-((5-(1-methyl-1H-pyrazol-4-yl)pyridin-2-yl)methyl)-N'-(pyrimidin-2-yl)quinoline-6-c arbohydrazide]	0.998	0.0044	0.035	28.51
Cc1cc2cc(C(=O)N(Cc3ccc(C4CC4)cn3)N(C)c3ncccn3)ccc2nc1N [Example 153, 2-amino-N-((5-cyclopropylpyridin-2-yl)methyl)-N',3-dimethyl-N'-(pyrimidin-2-yl)quinoline-6-carbohydrazide]	1.06	0.0016	0.02	52.80
Cc1cc2cc(C(=O)N(Cc3ccc(-c4ccc(C(F)(F)F)nc4)cn3)N(C)c3ncccn3)ccc2nc1N [Example 154, 2-amino-N',3-dimethyl-N'-(pyrimidin-2-y 1)-N-((6'-(trifluoromethyl)-[3,3'-bipyridine]-6-yl)methyl)quinoline-6-carbohydrazide]	0.833	0.0016	0.06	13.88
Cc1cc2cc(C(=O)N(Cc3ccc(-c4ccc(=O)n(C)c4)cn3)N(C)c3ncccn3)ccc2nc1N [Example 155, 2-amino-N',3-dimethyl-N-((1'-methyl-6'-oxo-1',6'-dihydro-[3,3'-bipyridine]-6-yl)methyl)-N'-(pyrimidin-2-yl)quinoline-6-car bohydrazide]	1.26	0.0023	0.042	30.00
Cc1cc2cc(C(=O)N(Cc3ccc(-c4ccoc4)cn3)N(C)c3ncccn3)ccc2nc1N [Example 156, 2-amino-N-((5-(furan-3-yl)pyridin-2-yl)methyl)-N',3-dimethyl-N'-(pyrimidin-2-yl)quinoline-6-carbohydrazide]	1.54	0.0018	0.076	20.26
Cc1cc2cc(C(=O)N(Cc3ccc(-c4cnsc4)cn3)N(C)c3ncccn3)ccc2nc1N [Example 157, 2-amino-N-((5-(isothiazol-4-yl)pyridin-2-yl)methyl)-N',3-dimethyl-N'-(pyrimidin-2-yl)quinoline-6-carbohydrazide]	0.361	0.0069	0.014	25.79
Cc1nc(C)c(-c2ccc(CN(C(=O)c3ccc4nc(N)c(C)cc4c3)N(c3ncccn3)C3CC3)nc2)s1 [Example 158, 2-amino-N'-cyclopropyl-N-((5-(2,4-dimethylthiazol-5-yl)pyridin-2-yl)methyl)-3-m ethyl-N'-(pyrimidin-2-yl)quinoline-6-carb ohydrazide]	0.225	0.0045	0.012	18.75
Cc1cc2cc(C(=O)N(Cc3ccc(C4=CCOCC4)cn3)N(C)c3ncccn3)ccc2nc1N [Example 159, 2-amino-N-((5-(3,6-dihydro-2H-pyran-4-yl)pyridin-2-yl)methyl)-N',3-dimethyl-N' -(pyrimidin-2-yl)quinoline-6-carbohydrazide]	2.07	0.0033	0.072	28.76
Cc1ccc(-c2ccc(CN(C(=O)c3ccc4nc(N)c(C)cc4c3)N(C)c3ncccn3)nc2)cn1 [Example 160, 2-amino-N',3-dimethyl-N-((6'-methyl-[3, 3'-bipyridine]-6-yl)methyl)-N'-(pyrimidin-2-yl)quinoline-6-carbohydrazide]	0.58	0.002	0.027	21.48
COc1ncc(F)cc1-c1ccc(CN(C(=O)c2ccc3nc(N)c(C)cc3c2)N(C)c2ncccn2)nc1 [Example 161, 2-amino-N-((5'-fluoro-2'-methoxy-[3,3'-bipyridine]-6-yl)methyl)-N',3-dimethyl-N'-(pyrimidin-2-yl)quinoline-6-carbohydrazide]	1.78	0.0017	0.087	20.48
Cc1cc2cc(C(=O)N(Cc3ccc(-c4cnn(C)c4)cn3)N(C)c3nccc4nccnc34)ccc2nc1N [Example 162, 2-amino-N',3-dimethyl-N-((5-(1-methyl-1H-pyrazol-4-yl)pyridin-2-yl)methyl)-N'-(pyrido[3,4-b]pyrazin-5-yl)quinoline-6-carbohydrazide]	0.85	0.0054	0.036	23.61
Cc1cc2cc(C(=O)N(Cc3ccc(-c4cccnc4)cn3)N(C)c3ncccc3F)ccc2nc1N [Example 163, N-([3,3'-bipyridine]-6-ylmethyl)-2-amino -N'-(3-fluoropyridin-2-yl)-N',3-dimethylq uinoline-6-carbohydrazide]	0.465	0.0014	0.015	31.00
Cc1cc2cc(C(=O)N(Cc3ccc(C4CC4)cn3)N(C)c3ncccc3F)ccc2nc1N [Example 164, 2-amino-N-((5-cyclopropylpyridin-2-yl)methyl)-N'-(3-fluoropyridin-2-yl)-N',3-di methylquinoline-6-carbohydrazide]	0.443	0.0009	0.02	22.15
[2H]C([2H])([2H])c1cc2cc(C(=O)N(Cc3ccc(-c4cnn(C)c4)cn3)N(C)c3ncccn3)ccc2nc1N [Example 166, 2-amino-N'-methyl-3-(methyl-D3)-N-((5-(1-methyl-1H-pyrazol-4-yl)pyridin-2-yl)methyl)-N'-(pyrimidin-2-yl)quinoline-6-carbohydrazide]	1.25	0.0048	0.068	18.32
Cc1cc2cc(C(=O)N(Cc3ccc(-c4ccn(C)n4)cn3)N(C)c3ncccn3)ccc2nc1N [Example 168, 2-amino-N',3-dimethyl-N-((5-(1-methyl-1H-pyrazol-3-yl)pyridin-2-yl)methyl)-N'-(pyrimidin-2-yl)quinoline-6-carbohydrazide]	2.57	0.0026	0.194	13.26
Cc1cc2cc(C(=O)N(Cc3ccc(-c4cnn(C5COC5)c4)cn3)N(C)c3ncccn3)ccc2nc1N [Example 169, 2-amino-N',3-dimethyl-N-((5-(1-(oxetan-3-yl)-1H-pyrazol-4-yl)pyridin-2-yl)methyl)-N'-(pyrimidin-2-yl)quinoline-6-carbohydrazide]	0.973	0.0025	0.039	24.95
Cc1ncsc1-c1ccc(CN(C(=O)c2ccc3nc(N)c(Br)cc3c2)N(c2ncccn2)C2CC2)nc1 [Example 171, 2-amino-3-bromo-N'-cyclopropyl-N-((5-(4-methylthiazol-5-yl)pyridin-2-yl)methyl)-N'-(pyrimidin-2-yl)quinoline-6-carbohydrazide]	0.622	0.0052	0.043	14.47
Cc1cc2cc(C(=O)N(Cc3ccc(-c4cccnc4)cn3)N(C)c3ncccn3)ccc2nc1N [Example 172, N-([3,3'-bipyridine]-6-ylmethyl)-2-amino -N',3-dimethyl-N'-(pyrimidin-2-yl)quinoline-6-carbohydrazide]	1.75	0.0021	0.024	73.08
Cc1cc2cc(C(=O)N(Cc3ccc(-c4ccncc4)cn3)N(C)c3ncccn3)ccc2nc1N [Example 173, N-([3,4'-bipyridine]-6-ylmethyl)-2-amino -N',3-dimethyl-N'-(pyrimidin-2-yl)quinoline-6-carbohydrazide]	0.633	0.0019	0.021	30.14
COc1ccc(-c2ccc(CN(C(=O)c3ccc4nc(N)c(C)cc4c3)N(C)c3ncccn3)nc2)cn1 [Example 174, 2-amino-N-((6'-methoxy-[3,3'-bipyridine] -6-yl)methyl)-N',3-dimethyl-N'-(pyrimidin-2-yl)quinoline-6-carbohydrazide]	1.07	0.0023	0.041	26.22
Cc1cc2cc(C(=O)N(Cc3ccc(-c4cncc(C(F)(F)F)c4)cn3)N(C)c3ncccn3)ccc2nc1N [Example 175, 2-amino-N',3-dimethyl-N'-(pyrimidin-2-yl)-N-((5'-(trifluoromethyl)-[3,3'-bipyridine]-6-yl)methyl)quinoline-6-carbohydrazide]	2.2	0.0033	0.116	18.95
Cc1cc2cc(C(=O)N(Cc3ccc(-c4ccc(N5CCOCC5)nc4)cn3)N(C)c3ncccn3)ccc2nc1N [Example 176, 2-amino-N',3-dimethyl-N-((6'-morpholinyl-[3,3'-bipyridine]-6-yl)methyl)-N'-(pyrimidin-2-yl)quinoline-6-carbohydrazide]	0.997	0.002	0.057	17.49

From patent publication EP4745134A1 (Jiangsu Yahong Meditech Co., Ltd., priority 2023, dated 2025)
